# Data published in patent US12152046B2, “Oleic acid derivatives, pharmaceutical composition or food composition comprising said oleic acid derivatives, and their uses” (UNIVERSITÉ DE BOURGOGNE, priority 2018, dated 2024).
# Entries after “also recorded” stand apart in the source; their conditions may differ.
# Assays:
# CD36 = target: T1, CD36 (Mus musculus, UniProt Q08857); experiment: Ca2+ signaling in mouse taste bud cells in presence or absence of the CD36 inhibitor SSO; format: cell-based; details: for action of the CD36 inhibitor SSO on the increase in [Ca2+]i induced by the compound: 20 μM SSO, mouse taste bud cells, Fura-2/AM; for CD36 agonist character: concluded from suppression by SSO
# T1 construct: freshly isolated and primary cultured mice type II taste bud cells (expressing GPR120 and CD36) are used; endogenous in cells; host or cells: primary mouse taste bud cells from fungiform papillae
# T1 sequence (Q08857 whole entry): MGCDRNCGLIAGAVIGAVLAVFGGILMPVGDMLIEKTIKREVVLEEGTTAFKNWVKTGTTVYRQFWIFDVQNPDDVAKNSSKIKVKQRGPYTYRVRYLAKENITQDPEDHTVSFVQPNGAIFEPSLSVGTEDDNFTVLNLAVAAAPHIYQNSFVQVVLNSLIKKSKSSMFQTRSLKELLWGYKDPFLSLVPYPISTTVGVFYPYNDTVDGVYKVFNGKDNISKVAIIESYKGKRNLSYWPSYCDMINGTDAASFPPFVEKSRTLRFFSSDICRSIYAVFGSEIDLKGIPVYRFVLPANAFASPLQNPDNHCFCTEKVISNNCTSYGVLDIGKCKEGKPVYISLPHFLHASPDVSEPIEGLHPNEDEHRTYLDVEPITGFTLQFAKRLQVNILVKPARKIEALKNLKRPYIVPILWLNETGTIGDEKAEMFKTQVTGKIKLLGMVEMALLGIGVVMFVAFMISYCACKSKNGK
# Procedure: (§1) The mouse taste bud cells were seeded in 24-well plates (with glass bottom), containing poly-D-lysine for better adhesion to the surface. After 24 h, taste cells were incubated for 45 minutes with a fluorescent probe, Fura-2/AM (1 μM) in calcium buffer (110 mM NaCl, 5.4 mM, KCl, 25 mM, NaHCO3, 0.8 mM, MgCl2, 0.4 mM, KH2PO4, 20 mM, Hepes-Na, 0.33 mM, NaHPO4, 1.2 mM, CaCl2), pH 7.4). Then, the cells are washed with phosphate buffer saline (PBS) and taken up in calcium buffer.
# (§2) Especially, the increases in [Ca^2+]i were measured as follows: the mice taste bud cells were cultured on Willico-Dish wells with a glass bottom and loaded with a fluorescent probe, Fura-2/AM. The changes in intracellular Ca^2+ (F340/F380) were monitored under the Nikon microscope (TiU) by using S-fluor 40× oil immersion objective. The planes were taken at Z intervals of 0.3 μm, and NIS-Elements software was used to deconvolve the images. The microscope was equipped with EM-CCD (Lucas) camera for real time recording of 16-bit digital images. The dual excitation fluorescence imaging system was used for studies of individual cells. The changes in intracellular Ca^2+ were expressed as ΔRatio, which was calculated as the difference between the peak F340/F380 ratio. The data were summarized from the large number of individual cells (20-40 cells in a single run, with 3-9 identical experiments done in at least three cell preparations). The results were analyzed with the NIS-elements software, the variation in [Ca^2+]i is expressed as A ratio (F340/F380) which was calculated with the difference of spectra at two wavelengths, i.e., 340 nm and 380 nm.
# CD36: in order to assess if the oleic acid derivatives according to the invention exert their actions via CD36, the sulfo-N-succinimidyl oleate (SSO) was used. SSO is a CD36 inhibitor/blocker/antagonist.
# Experiments were performed in the presence or absence of SSO with respect to calcium signaling to verify whether our analogs act well via this lipid receptor. Especially, for this assay with compounds 3a, 2a and oleic acid (control) were tested.
# mice = experiment: Two-bottle preference test; format: in vivo, mouse; details: for gustatory preference versus control solution (xanthan gum) / concentration preferred (optimal preference) in two-bottle preference test: 12 hours; for gustatory preference versus control solution (xanthan gum): 10 to 100 μM; for concentration preferred (optimal preference) in two-bottle preference test: versus xanthan gum control
# Procedure: Eight weeks old, male mice (C57BI/6 black) were purchased from the “Janvier Elevage” (Le Mans) and used for these experiments.
# The mice are placed individually in cages in a controlled environment (humidity and constant temperature) and have free access to a standard diet. 6 hours before the tests, the mice are deprived of water.
# During the behavioral experiments, the mice were offered two bottles simultaneously for 12 hours (night period).
# The mice are subjected to a choice between the “control” solution and the experimental solution (FIG. 4 and FIG. 5). • control solutions contain 0.3% xanthan gum, w/v, (Sigma Life Science, USA) in water to reproduce lipid texture and minimize bias due to differences in appearance between the two bottles; • the experimental solution contains, either the “test compound” according to the invention at a concentration varying from 10 to 100 μM (compound 3a, FIG. 4 or compound 2a, FIG. 5) or only xanthan gum at […] (control test). To avoid the preference for one side, the position of each bottle is changed during each test.
# To estimate the consumption of control and experimental solutions, the bottles are weighed before and after each experiment. The mice are allowed to take rest for 48 hours between each experiment.
# mouse taste bud cells = experiment: Ca2+ signaling (Fura-2/AM, F340/F380) in mouse taste bud cells; format: cell-based; details: for increase in intracellular free calcium concentration [Ca2+]i (F340/F380): mouse taste bud cells loaded with Fura-2/AM; for fat taste receptor(s) through which the compound acts: Ca2+ signaling with SSO or AH7614
# Procedure: The technique to isolate taste bud cells from mouse fungiform papillae has been described in the publication of El-Yassimi A, Hichami A, Besnard P, Khan N A. “Linoleic acid” induces calcium signaling, Src kinase phosphorylation, and neurotransmitter release in mouse CD36-positive gustatory cells”—J. Biol. Chem. 2008 May 9, 283(19), 12949-59.
# Briefly, lingual epithelium was separated by enzymatic dissociation which contained the following: elastase and dispase mixture, 2 mg/ml each, in Tyrode's buffer (120 mM NaCl; 5 mM KCl; 10 mM HEPES ((4-(2-hydroxyethyl)-1-piperazineethanesulfonic acid); 1 mM CaCl2); 1 mM MgCl2; 10 mM glucose; 10 mM Na pyruvate, pH 7.4). The taste bud cells were isolated by incubating lingual epithelium in RPMI 1640 medium containing 2 mM EDTA, 1.2 mg/ml elastase, 0.6 mg/ml collagenase (type I), and 0.6 mg/ml trypsin inhibitor at 37° C. for 10 minutes, followed by centrifugation (600 g, 10 minutes). The cell populations, after separation, were suspended in fresh RPMI 1640 medium containing 10% fetal calf serum, 200 U/ml penicillin, and 0.2 mg/ml streptomycin, seeded onto a Poly-D-Lysine-coated dishes, and cultured for 24 hours. At the end of this period, the cells were used for the experiments or stained with trypan blue to assess their viability.
# as §1
# The changes in intracellular Ca^2+ (F340/F380) were monitored under a Nikon microscope (TiU) by using an S Fluor 40× oil immersion objective.
# as §2
# obese C57BL/6J mice = experiment: Diet-induced obesity, body weight on high-fat diet; format: in vivo, mouse; details: for body weight in obese mice: HFD 28 weeks, analogue 75 μM in feeder bottles from 10th week, versus HFD only
# Procedure: C57BL/6J male mice, aged between 6 to 10 weeks (16-20 g), were obtained from Janvier Labs (France). They were housed individually in a controlled environment with a 12 h light/dark cycle with food (SAFE, France) and water ad libitum. The palm oil (Huilerie Vigean, France) was the main fat component in high-fat diets. The high-fat diet was prepared weekly and stored at 4° C. until further use. The study was conducted as per Declaration of Helsinki and European ethical guidelines for the care and use of animals for experimentation. All the experimental protocols (protocol number: 16158) were approved by the Regional Ethical Committee of the University of Burgundy (Dijon, France).
# The mice were grouped at random (n=10/group) and fed with either of the following diets: standard diet (STD) or high-fat diet (HFD). The body weight, food, and water intake were measured, weekly.
# (§3) After 10 weeks of feeding the diets, obese animals were divided into two groups: one groups continued to be fed on the same HFD; however, another group was fed on the same diet and received either NKS-3 or NKS-5) until 28th of weeks of experimentation. At the end, the animals were sacrificed, under a fasting condition, and used for different analysis in blood and different tissues.
# In order to elucidate the beneficial effects and especially during obesity, experiments were conducted on obese C57BL/6J mice. […] In order to test the curative/interventional effects on obesity, the animals were divided into two groups: one group that consumed only the high-fat diet (HFD) and the other consuming the same diet and also receiving 3a or 2a in ad libitum baby bottles/feeders. From the 10th week of the diet, we introduced lipid analogues into the bottles at 75 μM that corresponded to their preference in the double choice test. […] In addition, the decrease in obesity was maintained until the 28th week of feeding a HFD (FIGS. 6A and 6B). The study was stopped after the 28th week of the diet because the animals reached the age of 34 weeks and beyond that age, the aging factor may interfere with the growth.
# C-reactive protein (CRP) = experiment: CRP concentration in sera of obese mice; format: in vivo, mouse; details: obese mice on HFD, versus HFD only
# Procedure: as §3
# The CRP concentration was determined in sera by an automatic analyzer (Gilford Model 2000 system, a Beckman System T.R).
# GPR120 = target: T2, GPR120 (Mus musculus, UniProt Q7TMA4); experiment: Ca2+ signaling in mouse taste bud cells in presence or absence of the GPR120 antagonist AH7614; format: cell-based; details: AH7614 20 μM, compound at 50 μM, cells pre-incubated 15 minutes
# T2 construct: freshly isolated and primary cultured mice type II taste bud cells (expressing GPR120 and CD36) are used; endogenous in cells; host or cells: primary mouse taste bud cells from fungiform papillae
# T2 sequence (Q7TMA4 1-361): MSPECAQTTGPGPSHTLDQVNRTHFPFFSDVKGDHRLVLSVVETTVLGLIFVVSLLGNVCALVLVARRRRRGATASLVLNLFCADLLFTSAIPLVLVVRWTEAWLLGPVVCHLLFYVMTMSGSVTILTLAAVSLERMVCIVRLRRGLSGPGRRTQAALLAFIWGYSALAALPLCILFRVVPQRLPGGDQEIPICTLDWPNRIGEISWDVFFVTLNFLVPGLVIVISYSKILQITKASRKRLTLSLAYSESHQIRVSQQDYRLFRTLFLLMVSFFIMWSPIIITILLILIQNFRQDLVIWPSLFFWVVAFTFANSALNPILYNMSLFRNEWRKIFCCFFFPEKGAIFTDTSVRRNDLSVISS
# Procedure: as §1
# as §2, with “The microscope was equipped with EM-CCD (Lucas) camera for real time recording of 16-bit digital images.” left out, “The data were summarized from the large number of individual cells (20-40 cells in a single run, with 3-9 identical experiments done in at least three cell preparations).” left out, “nm. […]” for “nm.”
Compound,action of the CD36 inhibitor SSO on the increase in [Ca2+]i induced by the compound (CD36; listed as OA),concentration preferred in two-bottle preference test (mice) [mM],increase in intracellular free calcium concentration [Ca2+]i (F340/F380) (mouse taste bud cells),action of the CD36 inhibitor SSO on the increase in [Ca2+]i induced by the compound (CD36),CD36 agonist character (CD36),gustatory preference versus control solution (xanthan gum) (mice),concentration preferred (optimal preference) in two-bottle preference test (mice) [µM],body weight in obese mice (obese C57BL/6J mice),"anti-obesity effect, comparison of the two analogues (obese C57BL/6J mice; HFD, 75 μM in feeder bottles)",concentration of circulating CRP (C-reactive protein (CRP)),effect of the GPR120 inhibitor AH7614 on the increase in [Ca2+]i induced by the compound (GPR120),fat taste receptor(s) through which the compound acts (mouse taste bud cells)
CCCCCCCC/C=C\CCCCCCCC(=O)O [oleic acid],completely blocked; also recorded: partially blocked,7.7,rapid and significant rise in calcium signaling,–,–,–,–,–,–,–,–,–
"CCCCCCCC/C=C\CCCCCCCC(=O)OCC1(C)COC1 [Compound 2a, (Z)-(3-methyloxetan-3-yl)methyl octadec-9-enoate]",–,–,rapid and significant rise in calcium signaling; also recorded: huge increase,"partially blocked; also recorded: curtailed, but not completely suppressed",partial agonist,spontaneous preference,75,significant decrease in body weight,more powerful than 3a,significantly decreased,"significantly curtailed, but not suppressed",bounds to CD36; also recorded: acts on both receptors CD36 and GPR120
"CCCCCCCC/C=C\CCCCCCCCP(=O)(OCC)OCC [Compound 3a, diethyl (Z)-octadec-9-en-1-yl phosphonate]",–,–,rapid and significant rise in calcium signaling; also recorded: huge increase,completely blocked; also recorded: completely suppressed,complete CD36 agonist,spontaneous preference,75,significant decrease in body weight,–,significantly decreased,–,acts both to CD36 and GPR120
